Assay results published in ChEMBL document CHEMBL5649169 (ChemMedChem, 2018).

Key:
[1] = target: Conserved oligomeric Golgi complex subunit 2 (Homo sapiens) (UniProt Q14746)
[2] = target: Phosphorylated adapter RNA export protein (Homo sapiens) (UniProt Q9H814)
[3] = target: Serine/threonine-protein kinase LMTK2 (Homo sapiens) (UniProt Q8IWU2)
[4] = target: Pleckstrin homology domain-containing family G member 3 (Homo sapiens) (UniProt A1L390)
[5] = target: Zinc finger CCHC domain-containing protein 8 (Homo sapiens) (UniProt Q6NZY4)
Chain of Zinc finger CCHC domain-containing protein 8 (Homo sapiens) (Q6NZY4 whole entry, the tested form may be a part): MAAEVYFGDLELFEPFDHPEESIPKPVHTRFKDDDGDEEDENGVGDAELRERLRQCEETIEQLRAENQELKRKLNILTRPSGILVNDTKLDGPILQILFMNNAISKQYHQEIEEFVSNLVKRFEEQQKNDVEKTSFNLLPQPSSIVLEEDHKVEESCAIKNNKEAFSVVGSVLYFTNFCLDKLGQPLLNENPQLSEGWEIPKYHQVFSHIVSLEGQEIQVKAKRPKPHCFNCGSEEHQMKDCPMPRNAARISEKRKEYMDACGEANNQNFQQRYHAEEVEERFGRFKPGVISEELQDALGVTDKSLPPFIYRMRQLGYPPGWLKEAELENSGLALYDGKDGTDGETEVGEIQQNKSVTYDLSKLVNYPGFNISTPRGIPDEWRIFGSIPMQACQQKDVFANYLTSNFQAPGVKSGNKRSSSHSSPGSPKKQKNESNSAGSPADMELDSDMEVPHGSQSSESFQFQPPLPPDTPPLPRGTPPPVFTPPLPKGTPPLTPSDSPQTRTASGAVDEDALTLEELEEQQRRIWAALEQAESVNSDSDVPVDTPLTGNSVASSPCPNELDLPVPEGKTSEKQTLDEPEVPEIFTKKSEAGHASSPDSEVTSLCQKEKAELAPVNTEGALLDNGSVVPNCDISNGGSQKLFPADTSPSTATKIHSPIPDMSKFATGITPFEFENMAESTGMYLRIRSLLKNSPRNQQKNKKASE

Homo sapiens [6] = species: Homo sapiens
[7] = target: ATP-dependent RNA helicase A (Homo sapiens) (UniProt Q08211)
[8] = target: Small ribosomal subunit protein mS34 (Homo sapiens) (UniProt P82930)
[9] = target: Replication factor C subunit 5 (Homo sapiens) (UniProt P40937)
[10] = target: c-Myc-binding protein (Homo sapiens) (UniProt Q99417)
[11] = target: ATP-binding cassette sub-family F member 2 (Homo sapiens) (UniProt Q9UG63)
Chain of ATP-binding cassette sub-family F member 2 (Homo sapiens) (Q9UG63 whole entry): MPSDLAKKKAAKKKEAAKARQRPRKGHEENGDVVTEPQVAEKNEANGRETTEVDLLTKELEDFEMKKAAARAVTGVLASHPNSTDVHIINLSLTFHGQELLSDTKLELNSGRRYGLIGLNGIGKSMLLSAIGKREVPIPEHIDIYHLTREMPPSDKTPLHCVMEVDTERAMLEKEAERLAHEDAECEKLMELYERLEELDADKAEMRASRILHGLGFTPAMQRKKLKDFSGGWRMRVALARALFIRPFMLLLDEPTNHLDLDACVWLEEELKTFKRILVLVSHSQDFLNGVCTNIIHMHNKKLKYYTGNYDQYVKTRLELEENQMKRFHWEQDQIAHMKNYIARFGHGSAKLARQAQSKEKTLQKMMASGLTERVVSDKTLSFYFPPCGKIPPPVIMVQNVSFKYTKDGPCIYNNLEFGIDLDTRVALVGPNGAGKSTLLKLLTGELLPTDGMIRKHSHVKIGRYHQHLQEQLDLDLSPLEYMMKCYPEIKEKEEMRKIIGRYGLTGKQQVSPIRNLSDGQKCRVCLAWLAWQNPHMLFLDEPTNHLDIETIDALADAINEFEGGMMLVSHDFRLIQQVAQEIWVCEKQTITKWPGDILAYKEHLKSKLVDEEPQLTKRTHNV

[12] = target: Peptidyl-prolyl cis-trans isomerase FKBP3 (Homo sapiens) (UniProt Q00688)
[13] = target: 14-3-3 protein zeta/delta (Homo sapiens) (UniProt P63104)
[14] = target: Large ribosomal subunit protein eL19 (Homo sapiens) (UniProt P84098)
[15] = target: Forkhead box protein K1 (Homo sapiens) (UniProt P85037)
Cyclin-I (Homo sapiens) = Cyclin-I (Homo sapiens) (UniProt Q14094)
[16] = target: Small ribosomal subunit protein uS2m (Homo sapiens) (UniProt Q9Y399)
[17] = target: SPATS2-like protein (Homo sapiens) (UniProt Q9NUQ6)
[18] = target: Mismatch repair endonuclease PMS2 (Homo sapiens) (UniProt P54278)
[19] = target: Putative protein-lysine deacylase ABHD14B (Homo sapiens) (UniProt Q96IU4)
[20] = target: Small ribosomal subunit protein mS40 (Homo sapiens) (UniProt Q9Y676)
[21] = target: Signal recognition particle 19 kDa protein (Homo sapiens) (UniProt P09132)
Chain of Signal recognition particle 19 kDa protein (Homo sapiens) (P09132 whole entry): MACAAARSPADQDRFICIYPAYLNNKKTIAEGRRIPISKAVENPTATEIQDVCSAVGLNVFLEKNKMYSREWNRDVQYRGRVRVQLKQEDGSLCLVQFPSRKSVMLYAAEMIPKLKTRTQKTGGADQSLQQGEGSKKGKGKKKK

Homo sapiens [22] = species: Homo sapiens; remark: listed apart in the source
[23] = target: CCAAT/enhancer-binding protein zeta (Homo sapiens) (UniProt Q03701)
[24] = target: 14-3-3 protein sigma (Homo sapiens) (UniProt P31947)
[25] = target: Dual specificity protein kinase CLK4 (Homo sapiens) (UniProt Q9HAZ1)
[26] = target: AP-1 complex subunit sigma-1A (Homo sapiens) (UniProt P61966)
Copine-4 (Homo sapiens) = Copine-4 (Homo sapiens) (UniProt Q96A23)
[27] = target: Elongation factor G, mitochondrial (Homo sapiens) (UniProt Q96RP9)
Homo sapiens [28] = species: Homo sapiens; remark: listed apart in the source
[29] = target: Paired amphipathic helix protein Sin3a (Homo sapiens) (UniProt Q96ST3)
[30] = target: Uncharacterized aarF domain-containing protein kinase 5 (Homo sapiens) (UniProt Q3MIX3)
[31] = target: Lysophosphatidylcholine acyltransferase 1 (Homo sapiens) (UniProt Q8NF37)
Homo sapiens [32] = species: Homo sapiens; remark: listed apart in the source
[33] = target: HLA class I histocompatibility antigen, B alpha chain (Homo sapiens) (UniProt P01889)
Chain of HLA class I histocompatibility antigen, B alpha chain (Homo sapiens) (P01889 whole entry): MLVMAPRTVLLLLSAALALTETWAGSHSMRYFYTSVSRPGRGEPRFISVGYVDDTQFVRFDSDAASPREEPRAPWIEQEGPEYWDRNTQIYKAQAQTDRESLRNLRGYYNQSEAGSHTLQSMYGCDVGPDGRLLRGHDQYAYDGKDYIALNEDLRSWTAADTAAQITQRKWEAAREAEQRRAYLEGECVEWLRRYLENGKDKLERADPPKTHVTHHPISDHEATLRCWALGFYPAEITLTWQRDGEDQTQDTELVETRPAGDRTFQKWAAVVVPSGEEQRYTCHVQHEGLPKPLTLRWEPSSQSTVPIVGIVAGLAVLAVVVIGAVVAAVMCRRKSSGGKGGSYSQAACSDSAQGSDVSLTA

[34] = target: Lanosterol synthase (Homo sapiens) (UniProt P48449)
[35] = target: Thioredoxin reductase 1, cytoplasmic (Homo sapiens) (UniProt Q16881)
Chain of Thioredoxin reductase 1, cytoplasmic (Homo sapiens) (Q16881 whole entry): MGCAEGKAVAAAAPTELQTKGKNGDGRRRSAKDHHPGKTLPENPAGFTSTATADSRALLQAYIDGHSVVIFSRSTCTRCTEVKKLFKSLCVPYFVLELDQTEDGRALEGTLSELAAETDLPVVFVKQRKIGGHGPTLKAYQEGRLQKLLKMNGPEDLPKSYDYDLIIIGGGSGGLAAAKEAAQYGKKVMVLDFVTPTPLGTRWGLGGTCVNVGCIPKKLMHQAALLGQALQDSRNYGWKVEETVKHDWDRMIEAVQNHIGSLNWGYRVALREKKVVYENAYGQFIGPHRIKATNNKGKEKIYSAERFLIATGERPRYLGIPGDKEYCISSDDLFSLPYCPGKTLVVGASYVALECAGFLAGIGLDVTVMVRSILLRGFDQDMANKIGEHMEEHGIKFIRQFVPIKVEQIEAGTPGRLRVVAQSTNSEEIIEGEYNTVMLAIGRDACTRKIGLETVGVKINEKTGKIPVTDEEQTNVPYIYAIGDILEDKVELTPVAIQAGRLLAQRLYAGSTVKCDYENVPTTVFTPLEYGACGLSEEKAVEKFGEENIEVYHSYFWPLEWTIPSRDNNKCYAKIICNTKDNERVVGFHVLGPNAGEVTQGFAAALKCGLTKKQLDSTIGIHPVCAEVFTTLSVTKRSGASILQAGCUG

[36] = target: Serine-threonine kinase receptor-associated protein (Homo sapiens) (UniProt Q9Y3F4)
[37] = target: Tubulin beta-2B chain (Homo sapiens) (UniProt Q9BVA1)
[38] = target: Brefeldin A-inhibited guanine nucleotide-exchange protein 1 (Homo sapiens) (UniProt Q9Y6D6)
Chain of Brefeldin A-inhibited guanine nucleotide-exchange protein 1 (Homo sapiens) (Q9Y6D6 whole entry): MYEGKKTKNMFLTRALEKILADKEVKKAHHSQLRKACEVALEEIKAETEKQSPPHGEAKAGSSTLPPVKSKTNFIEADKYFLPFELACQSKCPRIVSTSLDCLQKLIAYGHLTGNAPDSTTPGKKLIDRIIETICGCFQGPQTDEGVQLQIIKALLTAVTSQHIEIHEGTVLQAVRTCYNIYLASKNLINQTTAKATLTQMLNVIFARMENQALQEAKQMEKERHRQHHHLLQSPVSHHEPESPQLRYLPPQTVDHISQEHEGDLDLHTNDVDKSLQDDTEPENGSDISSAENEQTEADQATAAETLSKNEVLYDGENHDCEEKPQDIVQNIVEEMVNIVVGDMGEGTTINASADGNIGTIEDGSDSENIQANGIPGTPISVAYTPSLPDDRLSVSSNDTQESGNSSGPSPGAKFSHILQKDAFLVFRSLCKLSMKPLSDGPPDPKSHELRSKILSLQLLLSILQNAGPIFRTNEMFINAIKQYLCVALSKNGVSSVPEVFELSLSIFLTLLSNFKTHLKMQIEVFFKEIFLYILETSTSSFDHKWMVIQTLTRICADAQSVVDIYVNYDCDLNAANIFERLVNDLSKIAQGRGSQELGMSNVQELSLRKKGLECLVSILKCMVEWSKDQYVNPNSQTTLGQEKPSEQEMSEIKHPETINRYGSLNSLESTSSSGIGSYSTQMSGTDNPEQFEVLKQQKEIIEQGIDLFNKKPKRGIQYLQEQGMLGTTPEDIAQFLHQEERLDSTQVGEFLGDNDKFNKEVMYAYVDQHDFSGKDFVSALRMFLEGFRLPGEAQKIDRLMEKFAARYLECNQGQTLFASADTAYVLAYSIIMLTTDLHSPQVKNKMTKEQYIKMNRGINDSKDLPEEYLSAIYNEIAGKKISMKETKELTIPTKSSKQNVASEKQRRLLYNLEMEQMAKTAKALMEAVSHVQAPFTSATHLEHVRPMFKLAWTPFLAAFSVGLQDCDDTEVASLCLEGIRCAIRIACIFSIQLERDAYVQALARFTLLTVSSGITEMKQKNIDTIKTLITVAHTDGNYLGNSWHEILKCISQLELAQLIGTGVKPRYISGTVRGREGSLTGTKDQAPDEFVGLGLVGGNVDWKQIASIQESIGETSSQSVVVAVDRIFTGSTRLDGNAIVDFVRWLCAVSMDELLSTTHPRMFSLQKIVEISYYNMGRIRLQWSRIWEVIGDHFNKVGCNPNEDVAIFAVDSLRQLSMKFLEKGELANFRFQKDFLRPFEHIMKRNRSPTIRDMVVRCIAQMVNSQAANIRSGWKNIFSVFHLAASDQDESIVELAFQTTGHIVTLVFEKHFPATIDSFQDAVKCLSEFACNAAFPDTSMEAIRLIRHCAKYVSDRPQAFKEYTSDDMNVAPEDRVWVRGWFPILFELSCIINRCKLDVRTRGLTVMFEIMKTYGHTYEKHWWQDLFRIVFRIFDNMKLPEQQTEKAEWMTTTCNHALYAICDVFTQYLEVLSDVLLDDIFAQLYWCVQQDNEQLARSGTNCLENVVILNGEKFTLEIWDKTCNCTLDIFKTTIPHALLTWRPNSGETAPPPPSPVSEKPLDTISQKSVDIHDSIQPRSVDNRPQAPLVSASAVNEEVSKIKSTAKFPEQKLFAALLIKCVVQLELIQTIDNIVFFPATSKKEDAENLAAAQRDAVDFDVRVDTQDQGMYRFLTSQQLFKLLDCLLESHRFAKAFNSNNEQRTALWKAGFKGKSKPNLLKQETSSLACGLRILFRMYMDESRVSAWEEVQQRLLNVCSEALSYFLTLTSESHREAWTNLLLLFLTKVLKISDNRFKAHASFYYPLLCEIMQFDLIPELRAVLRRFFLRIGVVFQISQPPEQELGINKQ

[39] = target: Protein PRRC2C (Homo sapiens) (UniProt Q9Y520)
[40] = target: Heterogeneous nuclear ribonucleoprotein R (Homo sapiens) (UniProt O43390)
[41] = target: Acyl-CoA dehydrogenase family member 11 (Homo sapiens) (UniProt Q709F0)
Matrin-3 (Homo sapiens) = Matrin-3 (Homo sapiens) (UniProt P43243)
[42] = target: Elongation factor Tu, mitochondrial (Homo sapiens) (UniProt P49411)
[43] = target: ER lumen protein-retaining receptor 1 (Homo sapiens) (UniProt P24390)
[44] = target: RNA-splicing ligase RtcB homolog (Homo sapiens) (UniProt Q9Y3I0)
[45] = target: Eukaryotic translation initiation factor 3 subunit D (Homo sapiens) (UniProt O15371)
Further: assay method not described here.

Chain of Conserved oligomeric Golgi complex subunit 2 (Homo sapiens) (Q14746 whole entry, one chain of several): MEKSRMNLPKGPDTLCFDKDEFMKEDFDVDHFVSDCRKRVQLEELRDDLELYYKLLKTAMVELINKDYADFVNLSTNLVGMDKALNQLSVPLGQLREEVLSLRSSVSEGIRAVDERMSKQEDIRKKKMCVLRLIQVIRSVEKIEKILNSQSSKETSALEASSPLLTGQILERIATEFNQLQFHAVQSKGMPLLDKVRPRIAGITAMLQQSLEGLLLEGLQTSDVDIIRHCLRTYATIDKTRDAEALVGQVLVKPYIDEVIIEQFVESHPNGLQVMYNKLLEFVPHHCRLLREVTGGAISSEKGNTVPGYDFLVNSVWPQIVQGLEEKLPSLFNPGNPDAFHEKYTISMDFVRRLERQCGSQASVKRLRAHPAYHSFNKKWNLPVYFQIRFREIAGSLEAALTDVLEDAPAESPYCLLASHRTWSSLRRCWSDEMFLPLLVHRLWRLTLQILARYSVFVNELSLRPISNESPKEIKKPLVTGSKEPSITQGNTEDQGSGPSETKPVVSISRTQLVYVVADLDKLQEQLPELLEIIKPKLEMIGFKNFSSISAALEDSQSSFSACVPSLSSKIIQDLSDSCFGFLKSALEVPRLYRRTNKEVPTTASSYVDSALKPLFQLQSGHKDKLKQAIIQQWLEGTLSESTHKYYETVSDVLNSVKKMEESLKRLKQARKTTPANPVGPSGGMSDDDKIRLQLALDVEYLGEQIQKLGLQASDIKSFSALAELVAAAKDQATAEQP

For `Cc1ccc(C(=O)Nc2cccc(C(F)(F)F)c2)cc1Nc1nc(-c2cccnc2)nc2c1cnn2C`, the ED50 [1] was 3.45 µM, the ED50 [2] was 3.51 µM and the ED50 [3] was 2.39 µM. The ED50 [4] was 0.00553 µM, the ED50 [5] was 16.9 µM and the ED50 (Homo sapiens [6]) was 11.8 µM. It also gave an ED50 [7] of 0.112 µM, an ED50 [8] of 0.0279 µM and an ED50 [9] of 0.584 µM. For the same compound, the ED50 [10] was 249 µM, the ED50 [11] was 5.47 µM and the ED50 [12] was 12 µM. It also gave an ED50 [13] of 0.00453 µM, an ED50 [14] of 2.93 µM and an ED50 [15] of 0.00359 µM. For the same compound, the ED50 (Cyclin-I (Homo sapiens)) was 26.5 µM, the ED50 [16] was 4.88 µM and the ED50 [17] was 0.0415 µM. The ED50 [18] was 89.9 µM, the ED50 [19] was 5470 µM and the ED50 [20] was 15.6 µM. It also gave an ED50 [21] of 10.1 µM, an ED50 (Homo sapiens [22]) of 0.059 µM and an ED50 [23] of 3.24 µM. For the same compound, the ED50 [24] was 0.00306 µM, the ED50 [25] was 676 µM and the ED50 [26] was 0.163 µM. For the same compound, the ED50 (Copine-4 (Homo sapiens)) was 0.00867 µM, the ED50 [27] was 0.136 µM and the ED50 (Homo sapiens [28]) was 0.000533 µM. It also gave an ED50 [29] of 47.7 µM, an ED50 [30] of 1150 µM and an ED50 [31] of 0.896 µM. It also gave an ED50 (Homo sapiens [32]) of 3.87 µM, an ED50 [33] of 0.00982 µM and an ED50 [34] of 112 µM.

For `Cc1ccc(C(=O)Nc2cccc(C(F)(F)F)c2)cc1Nc1nc(-c2cccnc2)nc2nn(C)cc12`, the ED50 [35] was 0.19 µM, the ED50 [36] was 0.0177 µM and the ED50 [37] was 0.014 µM. It also gave an ED50 [38] of 0.516 µM, an ED50 [39] of 2.52 µM and an ED50 [40] of 0.00823 µM. It also gave an ED50 [41] of 0.137 µM, an ED50 (Matrin-3 (Homo sapiens)) of 0.0227 µM and an ED50 [42] of 32.7 µM. It also gave an ED50 [43] of 0.000253 µM, an ED50 [44] of 0.0383 µM and an ED50 [45] of 0.0504 µM.
